Laboratory results: US8557864B2, “Agent having neurotrophic factor-like activity” (Nagoya Industrial Science Research Institute, priority 2007, dated 2013)

Assays:
Type in all cases: in vivo
[1] = system: mice under chronic mild stress; test: Tail suspension test, compound given at the same time as stress; details: 20, 100 and 500 μg/kg intraperitoneally once per day with stress; stressed 3 week- and 1 week-administration groups
Protocol: Mice under established chronic mild stress (hereinafter referred to as “stress”) were used for a depression and anxiety disorder-like model animal. Stress was applied as follows. 7-week-old male ddY strain mice fed in one cage for 4 mice were used and first subjected to forced swimming for 15 minutes. Then, the mice were fed in a sloped cage for 2 days, and then rested in a normal cage for 1 day. Then, the mice were fed in a dirt cage moisturized with 200 mL of water for 1 day and then rested in a normal cage for 1 day. Then, the mice were fed in a rotational cage that rotated at 180 rpm for 1 day, and then rested in a normal cage for 1 day. […] For 0 μg/kg administration examples of controls, a phosphoric acid buffer containing 0.1% DMSO (controls were expressed as “PBS” or “0 μg/kg” in the figure shown below) was administered in an amount of 0.25 mL to each of a stressed example and a non-stressed example. […]
A site of 1 cm from the tip of the tail of a mouse was grasped by a hand, being apart from a floor from 10 cm, and an immobility time in suspension for 6 minutes was measured for 2 hours. Since the immobility time prolongs when the mouse has a depressive symptom (condition), a level of the depressive symptom (condition) can be evaluated from the length of the immobility time. […]

[2] = system: mice under chronic mild stress; test: Burying the glass-marbles test after completion of stress; details: 20 μg/kg and 100 μg/kg; 1 week- and 2 week-administration groups after completion of stress
Protocol: Tips were bedded so as to have a height of 5 cm in a box with […] and 25 glass marbles (1.6 cm in diameter) were placed thereon at 5 cm-interval and behaviors of mice were observed. The number of buried glass marbles was found by counting each glass marble that was buried in ⅔ or more from visual observation from just above after 15 minutes as one count. The test was performed for 3 hours. Since a mouse under stress having an anxiety symptom (condition) takes such a behavior as burying glass marbles, a level of the anxiety symptom can be evaluated from the number of buried glass marbles.
Example 2 is a behavior test in which the compound 8 was administered to a mouse as well as stress was applied and a suppression effect of the compound 8 on depressive and anxiety symptoms of the mouse was examined. On the other hand, the present example is a behavior test in which only stress was applied for 3 weeks without administering the compound 8 and stress was completed and a therapeutic effect of the compound 8 on depressive and anxiety symptoms of a mouse after removing stress was examined. Stress was applied to a mouse in the same manner as in Example 2. […]

[3] = Measurement of weights of mice after completion of stress; details: 500 μg/kg for 1 week after completion of stress
Description: A weight of a mouse before stress was subtracted from of the weight of the mouse immediately after completion of stress for 3 weeks without administering the compound 8 and the weight of the mouse after administering the compound 8 for 1 week after completion of stress, respectively, to obtain weight gaps (g). FIGS. 29 and 30 show the results. Although doses are described in FIG. 29, the compound 8 was not administered as described above, and mice corresponding to each of the administration groups administered with the compound 8 for 1 week after completion of stress are only shown.

CCCCCCC/C=C/C(=O)OCC [Compound 8, trans-2-decenoic acid ethyl ester]
no significant difference: immobility time, stressed vs non-stressed example [1] | number of buried glass marbles, stressed vs non-stressed example [2] | weight gap, stressed vs non-stressed example [3]
